According to patent US20240277902A1, “METHOD FOR MANUFACTURING PERIPHERAL NERVE-MIMICKING MICROTISSUE AND USES THEREOF” (INNOSTEM BIO, priority 2021, published 2024):

Tested on: constituent cells in the peripheral nerve-mimicking microtissue
Experiment: Cytoprotection by NAC and DEX in suspension culture (LIVE/DEAD, immunofluorescence)
Type: cell-based
Details: 1 mM NAC, 3 days
From the text: As a result of limitation in oxygen and nutrient exchange during the production process of peripheral nerve-mimicking microtissues, ROS accumulates in tissues, leading to cell damage and death. The Example is intended to present a cytoprotection method by dexamethasone (DEX) and N-acetylcysteine (NAC) to inhibit cell damage and death. PNSCs collected from the monolayer culture environment are suspended in a suspension culture medium at a density of 1.0E+06/mL. […] 1.0×10^5 cells per cm^2 area of a culture vessel is seeded in the ULA T75 flask (SPL Life Sciences) culture vessel. 1 mM NAC, 1 μM DEX, NAC and DEX were added simultaneously in 15 mL of suspension culture medium and cultured for 3 days. Cell death was assessed by LIVE/DEAD staining, and, for cell death, the survival rate was evaluated by calculating the total number of cells stained with DAPI and counting the number of cells that are positive for ethidium homodimer-1 (EthD-1). Moreover, the expression of p38 MAPK and cleaved caspase, which are factors that regulate cell death, and the degree of expression of p-Akt, an anti-cell death regulating factor, were evaluated through immunofluorescence staining.

## CC(=O)N[C@@H](CS)C(=O)O [NAC, N-acetylcysteine]
1 μM DEX, or both in suspension culture medium
  cytoprotective effect on constituent cells in the microtissue (survival rate, LIVE/DEAD, EthD-1): protective effect
1 μM DEX, or both, immunofluorescence staining
  expression of Hif, p38 MAPK, and cleaved caspase (cell death proteins): significantly inhibit
